What all share (assay): HotSpot kinase profiling
Format in all cases: biochemical

The target in assay [1] is T1, DDR1 (Homo sapiens, UniProt Q08345).
T1 construct: purchased Reaction Biology Corp
In outline: (§1)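 Radiometric kinase assay with P81 filter capture; each kinase was added to fresh substrate plus cofactors in reaction buffer and incubated 2 h at room temperature. Unreacted phosphate was washed off with 0.1% phosphoric acid before detection; percent inhibition is relative to DMSO control, averaged over replicates.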

For assay [2], the target named is T2, ARK5/NUAK1 (Homo sapiens, UniProt O60285).
T2 construct: purchased Reaction Biology Corp
T2 sequence (O60285 1-661): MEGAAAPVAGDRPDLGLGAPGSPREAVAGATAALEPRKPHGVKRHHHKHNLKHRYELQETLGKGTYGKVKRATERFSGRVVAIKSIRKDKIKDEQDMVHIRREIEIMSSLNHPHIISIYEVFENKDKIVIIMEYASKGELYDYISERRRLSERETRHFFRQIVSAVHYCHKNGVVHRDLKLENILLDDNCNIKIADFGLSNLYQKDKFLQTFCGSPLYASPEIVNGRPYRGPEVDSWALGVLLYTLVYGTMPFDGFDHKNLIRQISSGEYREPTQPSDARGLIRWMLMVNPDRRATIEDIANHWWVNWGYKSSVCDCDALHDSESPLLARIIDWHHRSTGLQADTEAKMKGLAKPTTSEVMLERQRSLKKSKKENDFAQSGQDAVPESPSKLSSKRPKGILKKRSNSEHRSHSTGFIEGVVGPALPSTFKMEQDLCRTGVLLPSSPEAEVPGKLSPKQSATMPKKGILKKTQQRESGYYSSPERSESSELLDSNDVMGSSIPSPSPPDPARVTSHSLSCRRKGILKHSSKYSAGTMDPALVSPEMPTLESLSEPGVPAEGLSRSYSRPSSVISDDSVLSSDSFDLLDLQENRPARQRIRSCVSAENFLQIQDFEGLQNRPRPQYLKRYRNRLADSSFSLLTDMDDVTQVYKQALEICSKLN
The procedure, abridged:
as §1

Assay [3] has as its target T3, GRK2 (Homo sapiens, UniProt P25098).
T3 construct: purchased Reaction Biology Corp
T3 sequence (P25098 1-689): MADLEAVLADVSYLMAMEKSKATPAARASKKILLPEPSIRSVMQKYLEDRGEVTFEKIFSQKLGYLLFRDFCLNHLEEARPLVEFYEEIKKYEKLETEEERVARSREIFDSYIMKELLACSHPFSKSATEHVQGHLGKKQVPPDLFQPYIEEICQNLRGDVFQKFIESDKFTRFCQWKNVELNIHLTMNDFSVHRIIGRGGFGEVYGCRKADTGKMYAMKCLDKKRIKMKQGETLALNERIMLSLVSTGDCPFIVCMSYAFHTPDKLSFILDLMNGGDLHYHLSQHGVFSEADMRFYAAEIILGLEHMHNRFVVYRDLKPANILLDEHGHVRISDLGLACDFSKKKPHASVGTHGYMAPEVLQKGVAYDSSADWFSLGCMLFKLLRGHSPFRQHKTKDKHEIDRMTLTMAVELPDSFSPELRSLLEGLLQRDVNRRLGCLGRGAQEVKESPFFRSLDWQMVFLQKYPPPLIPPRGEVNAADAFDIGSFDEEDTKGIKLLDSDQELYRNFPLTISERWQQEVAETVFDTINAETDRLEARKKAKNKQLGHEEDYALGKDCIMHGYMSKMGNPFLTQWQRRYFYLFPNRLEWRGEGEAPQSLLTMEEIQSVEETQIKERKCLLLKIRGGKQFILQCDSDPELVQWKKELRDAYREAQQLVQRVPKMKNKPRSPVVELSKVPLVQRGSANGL
The procedure, abridged:
as §1

In assay [4] the target is T4, FLT1/VEGFR1 (Homo sapiens, UniProt P17948).
T4 construct: purchased Reaction Biology Corp
The procedure, abridged: as §1

[5] abbreviates: read-out: % Enzyme Activity (relative to DMSO controls) Run 1.
Setting [6] is: read-out: % Enzyme Activity (relative to DMSO controls) Run 2.

The structures appear in SMILES notation. Where two headings read alike, the source gives them in different places.

T1 sequence (Q08345 19-913): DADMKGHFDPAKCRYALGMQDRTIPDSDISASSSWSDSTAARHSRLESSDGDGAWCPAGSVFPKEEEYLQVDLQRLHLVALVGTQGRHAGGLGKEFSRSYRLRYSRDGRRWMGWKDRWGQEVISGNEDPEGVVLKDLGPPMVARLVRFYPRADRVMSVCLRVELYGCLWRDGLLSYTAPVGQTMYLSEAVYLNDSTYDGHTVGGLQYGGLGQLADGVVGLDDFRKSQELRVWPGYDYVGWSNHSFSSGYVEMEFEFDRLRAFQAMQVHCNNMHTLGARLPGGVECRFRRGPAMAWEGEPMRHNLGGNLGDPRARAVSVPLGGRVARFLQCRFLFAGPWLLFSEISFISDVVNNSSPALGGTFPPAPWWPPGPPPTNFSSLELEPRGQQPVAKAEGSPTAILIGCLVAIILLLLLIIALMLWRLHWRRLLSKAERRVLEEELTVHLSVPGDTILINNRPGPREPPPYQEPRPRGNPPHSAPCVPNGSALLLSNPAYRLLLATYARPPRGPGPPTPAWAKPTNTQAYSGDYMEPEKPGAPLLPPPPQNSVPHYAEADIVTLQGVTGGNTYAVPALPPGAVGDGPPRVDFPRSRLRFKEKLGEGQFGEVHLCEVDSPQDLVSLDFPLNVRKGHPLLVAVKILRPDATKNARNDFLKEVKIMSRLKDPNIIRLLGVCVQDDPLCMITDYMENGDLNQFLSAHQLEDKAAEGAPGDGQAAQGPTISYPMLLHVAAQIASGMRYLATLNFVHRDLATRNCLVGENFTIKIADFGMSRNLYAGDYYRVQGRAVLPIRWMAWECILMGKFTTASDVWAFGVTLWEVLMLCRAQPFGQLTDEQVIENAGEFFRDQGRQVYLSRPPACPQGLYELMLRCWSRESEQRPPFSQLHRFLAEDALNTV
T4 sequence (P17948 27-1338): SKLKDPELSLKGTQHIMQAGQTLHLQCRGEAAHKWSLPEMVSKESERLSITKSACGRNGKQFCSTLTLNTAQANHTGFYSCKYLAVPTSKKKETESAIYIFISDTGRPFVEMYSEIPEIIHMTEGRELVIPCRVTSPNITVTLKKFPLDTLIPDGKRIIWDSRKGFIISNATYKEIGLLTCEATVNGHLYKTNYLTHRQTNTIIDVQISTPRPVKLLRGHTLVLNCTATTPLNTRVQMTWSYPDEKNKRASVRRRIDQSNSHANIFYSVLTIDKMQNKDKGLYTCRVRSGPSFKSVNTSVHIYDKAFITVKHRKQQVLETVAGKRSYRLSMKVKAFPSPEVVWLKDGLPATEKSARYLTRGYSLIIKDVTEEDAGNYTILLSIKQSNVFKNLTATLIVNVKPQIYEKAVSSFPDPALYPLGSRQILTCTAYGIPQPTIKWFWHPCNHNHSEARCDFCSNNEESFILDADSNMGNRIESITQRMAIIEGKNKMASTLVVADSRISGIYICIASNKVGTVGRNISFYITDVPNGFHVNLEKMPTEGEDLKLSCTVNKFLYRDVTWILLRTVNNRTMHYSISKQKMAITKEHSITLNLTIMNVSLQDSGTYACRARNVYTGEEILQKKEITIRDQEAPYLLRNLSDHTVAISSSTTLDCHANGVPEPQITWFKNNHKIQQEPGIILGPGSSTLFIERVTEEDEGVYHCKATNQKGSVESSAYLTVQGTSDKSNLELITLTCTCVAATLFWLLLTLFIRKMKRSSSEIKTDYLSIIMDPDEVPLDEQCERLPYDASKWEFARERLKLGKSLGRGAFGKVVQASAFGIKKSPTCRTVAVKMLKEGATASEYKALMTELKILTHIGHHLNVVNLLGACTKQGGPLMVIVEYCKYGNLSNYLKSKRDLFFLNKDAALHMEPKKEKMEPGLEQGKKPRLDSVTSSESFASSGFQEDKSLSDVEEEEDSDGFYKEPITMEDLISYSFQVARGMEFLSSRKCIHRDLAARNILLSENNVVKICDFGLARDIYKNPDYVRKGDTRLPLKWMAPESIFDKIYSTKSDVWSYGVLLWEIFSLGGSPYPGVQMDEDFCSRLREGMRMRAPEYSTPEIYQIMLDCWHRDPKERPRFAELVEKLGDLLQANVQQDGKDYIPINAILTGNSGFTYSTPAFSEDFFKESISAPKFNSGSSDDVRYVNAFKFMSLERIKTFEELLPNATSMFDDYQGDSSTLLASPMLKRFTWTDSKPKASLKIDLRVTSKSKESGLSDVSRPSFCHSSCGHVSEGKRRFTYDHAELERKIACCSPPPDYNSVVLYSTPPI

With `C=CC(=O)Nc1cccc(Nc2nc(Nc3ccc(OCCOC)c(F)c3)ncc2F)c1` [Compound 2], the inhibition (commonly the change of the read-out against control, counted positive when it falls) at 3 µM in assay [1] was 75.1%; in assay [2] it was 86.7%; in assay [3] it was -4.03%; in assay [4], 18.6%. Also, the remaining activity at 3 µM worked out at 25.7% in assay [1] (setting [5]); 24.1% in assay [1] (setting [6]); 13.3% in assay [2] (setting [5]); 13.3% in assay [2] (setting [6]); 104% in assay [3] (setting [5]); 104% in assay [3] (setting [6]). Further, the remaining activity at 3 µM worked out at 83.6% in assay [4] (setting [5]) and 79.2% in assay [4] (setting [6]).
